Results published in publication PMC8214221, “Sequence determinants in the cathelicidin LL-37 that promote inflammation via presentation of RNA to scavenger receptors” (The Journal of Biological Chemistry, 2021).
Values after ≈ are worked out from the molar mass of the structure shown. Where two headings read alike, the source gives them in different places. Residues, ends and D or L forms follow the SMILES beside them.

Experiments:
[1] = system: normal human epidermal keratinocytes (NHEKs); assay: LDH release cytotoxicity assay in keratinocytes; type: cell-based; conditions: minimal concentration giving 50% LDH release by NHEKs
Method in brief: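 Normal human epidermal keratinocytes were exposed to LL-34 parent and alanine-substituted peptides. Cytotoxicity was read as LDH release in fresh culture supernatants after treatment, using a commercial kit, and reported as the minimal concentration showing toxicity.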

[2] = system: methicillin-resistant Staphylococcus aureus strain USA300; type: cell-based; conditions: for Antimicrobial potency against S. aureus USA300 compared with LL-34 parent peptide: MIC comparison with parent (MIC 25 μM), 18 h
Source text: Since LL-34 was the minimal truncation mutant of LL-37 that retained both antimicrobial and immune modulatory activity, we prepared a series of synthetic peptides with sequential substitutions of alanine at each amino acid position of the LL-34 parent peptide (Table 1). We compared the minimum inhibitory concentration (MIC) for the LL-34 parent peptide and the alanine mutants (LL-34 peptides—L1A and R34A) against methicillin-resistant Staphylococcus aureus strain USA300 (Fig. 1A). LL-34 peptides were incubated at concentrations of 0 to 100 μM with bacteria. The minimal concentration at which no growth was observed was noted after 18 h of incubation. […] Because of these changes in the MIC against S. aureus between the mutants, we investigated the effective toxicity profile of the peptides in normal human epidermal keratinocytes (NHEKs) by lactate dehydrogenase (LDH) release assay (Table 1). […] Most other peptides were cytotoxic at a minimal concentration of 10 μM, whereas LL-34—K15A was toxic at a concentration of 2.5 μM.
Methicillin-resistant S. aureus USA300 and methicillin-sensitive S. aureus SA113 (American Type Culture Collection 35556) were cultured in 3% tryptic soy broth overnight at 37 °C with shaking at 250 rpm. GAS M49 strain NZ131 was cultured in Todd Hewitt broth supplemented with 1% yeast extract overnight at 37 °C without shaking. E. coli R1 strain RS218 was cultured in LB broth overnight at 37 °C with shaking at 250 rpm. MIC values were determined using a round-bottom 96-well microdilution method with RPMI cell culture media (as a source of Ca^2+ and Mg^2+) supplemented with tryptic soy broth, Todd Hewitt broth/yeast extract, or LB to facilitate growth of the respective bacterial strains. Overnight bacterial cultures were subcultured into fresh broth and grown to midlate log phase indicated by an absorbance at 600 nm value between 0.8 and 1.0 for each bacterial strain. The absorbance was then normalized to provide a concentration of 1 × 10^7 colony-forming units/ml in RPMI medium. The LL-34 parent and alanine scan mutants were serially diluted into the 96-well microtiter plates containing prewarmed RPMI bacterial growth medium. A 10 μl aliquot of the midlate log phase bacteria was inoculated into the 96-well microtiter plates that contained 95 μl of RPMI medium with or without the LL-34 peptide dilutions and incubated for 16 to 18 h at […] with shaking at 200 rpm. Inhibition of growth was determined by measuring the absorbance at 600 nm readings of each well using a microplate reader (Infinite M200 Pro; Tecan). The MIC of each bacterial strain was determined by the lowest peptide concentration that inhibited more than 80% bacterial growth.

[3] = system: NHEKs, IL-6 secretion in response to U1 dsRNA; assay: IL-6 secretion ELISA in NHEKs; type: cell-based, human; conditions: U1 dsRNA 2.5 μg/ml + peptide 2 μM, 18 h, n = 3
Procedure: Protein levels of human IL-6 were analyzed from cell supernatant with ELISA (n = 3). Corresponding MIC values of LL-34 peptides L1A–R34A against Staphylococcus aureus USA300 are shown in the heat map. B, human dermal endothelial cells (HDMECs) were treated with either U1 dsRNA (2.5 μg/ml) or a combination of U1 dsRNA (2.5 μg/ml) and LL-34 peptides (Pep 1–Pep 34 and Pep–parent LL-34) at 2 μM for 18 h. IL-6 ELISA results are shown (n = 3). Green bars denote loss of IL-6 protein secretion compared with parent control shown in red. C, helical wheel plot for LL-34. Amino acids with green circles denote specific residues where replacement with an alanine caused the loss of IL-6 secretion compared with parent LL-34 peptide in NHEKs cotreated with U1 dsRNA. D, in the helical wheel plot for LL-34, circled green amino acids indicate that a substitution caused a loss of vetting in HDMEC. E–H, NHEKs were treated with LL-34-parent peptide (LL-34-P), LL-34-F5A, LL-34-I24A, LL-34-F27A, and LL-34-L31A at 2 μM, either individually or in combination with U1 dsRNA (2.5 μg/ml) for 8 h. Gene expression of IL-6, IFNB1, TSLP, and CXCL10 was assessed with qRT-PCR. GAPDH was used as a reference gene (n = 3) (∗p < 0.05; ∗∗∗∗p < 0.0001). One way-ANOVA was used. IL-6, interleukin 6; LL-34, 34-amino acid peptide; MIC, minimum inhibitory concentration, ns, not significant.
We hypothesized that sequential replacement of each amino acid in LL-34 peptide with a neutral amino acid alanine might reveal the amino acid residues critical for its ability to induce inflammation in response to U1 dsRNA. First, we treated NHEKs and human dermal microvascular endothelial cells (HDMECs) with LL-34 parent peptide and each of the 34 mutants at 2 μM for 18 h and measured the secretion of interleukin 6 (IL-6) in the supernatant by ELISA (Fig. S1, A and B). […] We then treated both NHEKs and HDMECs with a combination of U1 dsRNA (2.5 μg/ml) and the LL-34 parent/mutant peptides at 2 μM for 18 h and measured IL-6 secretion (Fig. 1, A–C). […] A similar pattern of IL-6 release was observed when HDMECs were treated with the peptide library and U1 dsRNA (Fig. 1B).
Cell culture supernatant was frozen at −80 °C until use for analysis. ELISA was performed with sandwich ELISA kits (R&D Systems) and quantified on a Spectramax Absorbance reader (Molecular Biosystems). Data were analyzed with GraphPad.

SMILES | Minimal cytotoxic concentration in NHEK (LD50) [1] [µM] | Antimicrobial potency against S. aureus USA300 compared with LL-34 parent peptide [2] | IL-6 protein secretion, cotreatment with U1 dsRNA, vs U1 dsRNA + LL-34 parent [3] | Antimicrobial potency against S. aureus USA300 compared with LL-34 parent peptide ([2]; listed as IL3a) | MIC against S. aureus USA300 ([2]; USA300, 18 h) [µM]
CC[C@H](C)[C@H](NC(=O)[C@H](C)NC(=O)[C@H](CCC(=O)O)NC(=O)[C@H](CCCCN)NC(=O)[C@H](CO)NC(=O)[C@H](CCCCN)NC(=O)[C@H](CCCNC(=N)N)NC(=O)[C@H](Cc1ccccc1)NC(=O)[C@H](Cc1ccccc1)NC(=O)[C@H](CC(=O)O)NC(=O)CNC(=O)[C@H](CC(C)C)NC(=O)[C@@H](N)CC(C)C)C(=O)NCC(=O)N[C@@H](CCCCN)C(=O)N[C@@H](CCC(=O)O)C(=O)N[C@@H](Cc1ccccc1)C(=O)N[C@@H](CCCCN)C(=O)N[C@@H](CCCNC(=N)N)C(=O)N[C@H](C(=O)N[C@H](C(=O)N[C@@H](CCC(N)=O)C(=O)N[C@@H](CCCNC(=N)N)C(=O)N[C@H](C(=O)N[C@@H](CCCCN)C(=O)N[C@@H](CC(=O)O)C(=O)N[C@@H](Cc1ccccc1)C(=O)N[C@@H](CC(C)C)C(=O)N[C@@H](CCCNC(=N)N)C(=O)N[C@@H](CC(N)=O)C(=O)N[C@@H](CC(C)C)C(=O)N[C@H](C(=O)N1CCC[C@H]1C(=O)N[C@@H](CCCNC(=N)N)C(=O)O)C(C)C)[C@@H](C)CC)C(C)C)[C@@H](C)CC [LL-34—K12A] (H-LLGDFFRKSKEAIGKEFKRIVQRIKDFLRNLVPR-OH) | 5 | reduced MIC compared with the parent peptide | reduced secretion of IL-6 protein | – | –
CC[C@H](C)[C@H](NC(=O)[C@H](CCCNC(=N)N)NC(=O)[C@H](CCC(N)=O)NC(=O)[C@@H](NC(=O)[C@@H](NC(=O)[C@H](CCCNC(=N)N)NC(=O)[C@H](CCCCN)NC(=O)[C@H](Cc1ccccc1)NC(=O)[C@H](CCC(=O)O)NC(=O)[C@H](CCCCN)NC(=O)CNC(=O)[C@H](C)NC(=O)[C@H](CCCCN)NC(=O)[C@H](CCC(=O)O)NC(=O)[C@H](CCCCN)NC(=O)[C@H](CO)NC(=O)[C@H](CCCCN)NC(=O)[C@H](CCCNC(=N)N)NC(=O)[C@H](Cc1ccccc1)NC(=O)[C@H](Cc1ccccc1)NC(=O)[C@H](CC(=O)O)NC(=O)CNC(=O)[C@H](CC(C)C)NC(=O)[C@@H](N)CC(C)C)[C@@H](C)CC)C(C)C)C(=O)N[C@@H](CCCCN)C(=O)N[C@@H](CC(=O)O)C(=O)N[C@@H](Cc1ccccc1)C(=O)N[C@@H](CC(C)C)C(=O)N[C@@H](CCCNC(=N)N)C(=O)N[C@@H](CC(N)=O)C(=O)N[C@@H](CC(C)C)C(=O)N[C@H](C(=O)N1CCC[C@H]1C(=O)N[C@@H](CCCNC(=N)N)C(=O)O)C(C)C [LL-34—I13A] (H-LLGDFFRKSKEKAGKEFKRIVQRIKDFLRNLVPR-OH) | 5 | killed S. aureus USA300 more potently | reduced secretion of IL-6 protein | gained antimicrobial activity | –
CC[C@H](C)[C@H](NC(=O)[C@H](CCCCN)NC(=O)[C@H](CCC(=O)O)NC(=O)[C@H](CCCCN)NC(=O)[C@H](CO)NC(=O)[C@H](CCCCN)NC(=O)[C@H](CCCNC(=N)N)NC(=O)[C@H](Cc1ccccc1)NC(=O)[C@H](Cc1ccccc1)NC(=O)[C@H](CC(=O)O)NC(=O)CNC(=O)[C@H](CC(C)C)NC(=O)[C@@H](N)CC(C)C)C(=O)NCC(=O)N[C@@H](CCCCN)C(=O)N[C@@H](CCC(=O)O)C(=O)N[C@@H](Cc1ccccc1)C(=O)N[C@@H](CCCCN)C(=O)N[C@@H](CCCNC(=N)N)C(=O)N[C@H](C(=O)N[C@H](C(=O)N[C@@H](CCC(N)=O)C(=O)N[C@@H](CCCNC(=N)N)C(=O)N[C@H](C(=O)N[C@@H](CCCCN)C(=O)N[C@@H](CC(=O)O)C(=O)N[C@@H](Cc1ccccc1)C(=O)N[C@@H](CC(C)C)C(=O)N[C@@H](CCCNC(=N)N)C(=O)N[C@@H](CC(N)=O)C(=O)N[C@@H](CC(C)C)C(=O)N[C@H](C(=O)N1CCC[C@H]1C(=O)N[C@@H](C)C(=O)O)C(C)C)[C@@H](C)CC)C(C)C)[C@@H](C)CC [LL-34—R34A] (H-LLGDFFRKSKEKIGKEFKRIVQRIKDFLRNLVPA-OH) | 10 | reduced MIC compared with the parent peptide | – | – | –
CC[C@H](C)[C@H](NC(=O)[C@H](CCCCN)NC(=O)[C@H](CCC(=O)O)NC(=O)[C@H](CCCCN)NC(=O)[C@H](CO)NC(=O)[C@H](CCCCN)NC(=O)[C@H](CCCNC(=N)N)NC(=O)[C@H](Cc1ccccc1)NC(=O)[C@H](Cc1ccccc1)NC(=O)[C@H](CC(=O)O)NC(=O)CNC(=O)[C@H](CC(C)C)NC(=O)[C@@H](N)CC(C)C)C(=O)NCC(=O)N[C@@H](CCCCN)C(=O)N[C@@H](CCC(=O)O)C(=O)N[C@@H](Cc1ccccc1)C(=O)N[C@@H](CCCCN)C(=O)N[C@@H](CCCNC(=N)N)C(=O)N[C@H](C(=O)N[C@H](C(=O)N[C@@H](CCC(N)=O)C(=O)N[C@@H](CCCNC(=N)N)C(=O)N[C@H](C(=O)N[C@@H](CCCCN)C(=O)N[C@@H](CC(=O)O)C(=O)N[C@@H](Cc1ccccc1)C(=O)N[C@@H](CC(C)C)C(=O)N[C@@H](CCCNC(=N)N)C(=O)N[C@@H](CC(N)=O)C(=O)N[C@@H](CC(C)C)C(=O)N[C@H](C(=O)N1CCC[C@H]1C(=O)N[C@@H](CCCNC(=N)N)C(=O)O)C(C)C)[C@@H](C)CC)C(C)C)[C@@H](C)CC [LL-34—parent] (H-LLGDFFRKSKEKIGKEFKRIVQRIKDFLRNLVPR-OH) | 5 | – | – | – | 25 (≈ 104 µg/mL)
